According to patent US10375956B2, “Herbicidally active 2-(substituted-phenyl)-cyclopentane-1,3-dione compounds and derivatives thereof” (Syngenta Limited, priority 2013, dated 2019):
Read-outs that look alike come from different tables or passages of the source.

Experiments:
Format in all cases: in vivo
[1] = system: Echinochloa crus-galli (ECHCG); assay: Test 2 glasshouse assay (IF50 formulation, X-77), post-emergence herbicidal activity; details: 360 h, 15 DAA, visual score, read-out: Post-emergence herbicidal activity (percentage phytotoxicity) ECHCG; for pest or weed control at 30 g/ha: application rate 30 g/ha; for pest or weed control at 250 g/ha: application rate 250 g/ha; for pest or weed control at 125 g/ha: application rate 125 g/ha
Experimental: (§1) Seeds of a variety of monocotyledonous and dicotyledonous test plants are sown in standard soil in pots. The plants are cultivated for one day (for pre-emergence) or for about 12 days (for post-emergence) under controlled conditions in a glasshouse (warm climate species at 24/18° C., cool climate species at 20/16° C., both at day/night; 16 hours light; 65% humidity).
(§2) An “instant formulation”, known as the “IF50”, containing 50 g/liter (i.e. 5% w/v) of the “technical” (i.e. unformulated) active ingredient is prepared by dissolving the active ingredient in a mixture of organic solvents and emulsifier, details of which are provided in the Table below. This IF50 is then mixed with a small, variable amount of acetone to aid dissolution, before addition of a 0.2% v/v aqueous solution of the adjuvant X-77 (which is a mixture of alkyl aryl polyoxyethylene glycols and free fatty acids in isopropanol, CAS Registry number 11097-66-8), as the aqueous diluent, to form an aqueous spray solution which contains a predetermined concentration of the active ingredient (which varies depending on the application rate of the active ingredient to the plants) and 0.2% v/v of the adjuvant X-77. This aqueous spray solution is then sprayed onto the plants, after one day's cultivation (for pre-emergence), or after about 12 days' cultivation (range=10-13 days) (for post-emergence).
(§3) The test plants are then grown on, in a glasshouse (greenhouse) under controlled conditions (warm climate species at 24/18° C., cool climate species at 20/16° C., both at day/night; 16 hours light; 65% humidity) and are watered twice daily. 15 days after application of the test herbicide (15DAA) (for post-emergence), and 20 days after application of the test herbicide (20DAA) (for pre-emergence), the test plants are evaluated visually, and an assessed percentage phytotoxicity score is given for each herbicidal application on each plant species (with 100%=total damage to plant; 0%=no damage to plant).
(§4) Warm climate (“warm season”) grassy monocotyledonous weeds: Setaria faberi (SETFA), Panicum miliaceum (PANMI), Sorghum vulgare Pers. (SORVU) (or Sorghum bicolor (L) Moench ssp. Bicolor), Digitaria sanguinalis (DIGSA), Echinochloa crus-galli (ECHCG), and Brachiaria plantaginea (BRAPL).

[2] = system: Panicum miliaceum (PANMI); assay: as above; details: 360 h, 15 DAA, visual score, read-out: Post-emergence herbicidal activity (percentage phytotoxicity) PANMI; for pest or weed control at 30 g/ha: application rate 30 g/ha; for pest or weed control at 250 g/ha: application rate 250 g/ha; for pest or weed control at 125 g/ha: application rate 125 g/ha
Experimental: as §1, §2, §3, §4

Setaria faberi (SETFA) = assay: as above; details: 360 h, 15 DAA, visual score, read-out: Post-emergence herbicidal activity (percentage phytotoxicity) SETFA; for pest or weed control at 30 g/ha: application rate 30 g/ha; for pest or weed control at 250 g/ha: application rate 250 g/ha; for pest or weed control at 125 g/ha: application rate 125 g/ha
Experimental: as §1, §2, §3, §4

[3] = system: Sorghum vulgare Pers. (SORVU); assay: as above; details: Sorghum bicolor, 360 h, 15 DAA, visual score, read-out: Post-emergence herbicidal activity (percentage phytotoxicity) SORVU; for pest or weed control at 30 g/ha: application rate 30 g/ha; for pest or weed control at 250 g/ha: application rate 250 g/ha; for pest or weed control at 125 g/ha: application rate 125 g/ha
Experimental: as §1, §2, §3, §4

[4] = system: Brachiaria plantaginea (BRAPL); assay: as above; details: Urochloa plantaginea, 360 h, 15 DAA, visual score, read-out: Post-emergence herbicidal activity (percentage phytotoxicity) BRAPL; for pest or weed control at 30 g/ha: application rate 30 g/ha; for pest or weed control at 250 g/ha: application rate 250 g/ha; for pest or weed control at 125 g/ha: application rate 125 g/ha
Experimental: as §1, §2, §3, §4

[5] = system: Digitaria sanguinalis (DIGSA); assay: as above; details: 360 h, 15 DAA, visual score, read-out: Post-emergence herbicidal activity (percentage phytotoxicity) DIGSA; for pest or weed control at 30 g/ha: application rate 30 g/ha; for pest or weed control at 250 g/ha: application rate 250 g/ha; for pest or weed control at 125 g/ha: application rate 125 g/ha
Experimental: as §1, §2, §3, §4

[6] = system: Echinochloa crus-galli (ECHCG); assay: Test 1 glasshouse assay, post-emergence herbicidal activity; details: 312 h, after 13 days, read-out: Percentage phytotoxicity ECHCG
Summary of the method: (§5)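 Plants sprayed 8 days after sowing with active ingredient in acetone/water (50:50) containing 0.5% Tween 20, grown in glasshouse at 24/16°C day/night, 14 h light, 65% humidity. Phytotoxicity scored visually after 13 days as percentage damage (100% = total damage; 0% = none).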

[7] = system: Alopecurus myosuroides (ALOMY); assay: as above; details: 312 h, after 13 days, read-out: Percentage phytotoxicity ALOMY
Summary of the method: as §5

[8] = system: Brassica napus (BRSNN, rape); assay: Test 2 glasshouse assay (IF50 formulation, X-77), post-emergence herbicidal activity; details: 360 h, 15 DAA, visual score, read-out: Post-emergence herbicidal activity (percentage phytotoxicity) BRSNN; for plant injury at 30 g/ha: application rate 30 g/ha; for plant injury at 250 g/ha: application rate 250 g/ha; for plant injury at 125 g/ha: application rate 125 g/ha
Experimental: as §1, §2, §3
(§6) Cool climate crop plants: Triticum aestivum (TRZAW, winter wheat), Brassica napus (BRSNN, rape, also called oilseed rape or rapeseed), Beta vulgaris (BEAVA, sugarbeet). Warm climate crop plants: Glycine max (GLXMA, soybean).

[9] = system: Glycine max (GLXMA, soybean); assay: as above; details: 360 h, 15 DAA, visual score, read-out: Post-emergence herbicidal activity (percentage phytotoxicity) GLXMA; for plant injury at 30 g/ha: application rate 30 g/ha; for plant injury at 250 g/ha: application rate 250 g/ha; for plant injury at 125 g/ha: application rate 125 g/ha
Experimental: as §1, §2, §3, §6

[10] = system: Beta vulgaris (BEAVA, sugarbeet); assay: as above; details: 360 h, 15 DAA, visual score, read-out: Post-emergence herbicidal activity (percentage phytotoxicity) BEAVA; for plant injury at 30 g/ha: application rate 30 g/ha; for plant injury at 250 g/ha: application rate 250 g/ha; for plant injury at 125 g/ha: application rate 125 g/ha
Experimental: as §1, §2, §3, §6

[11] = post-emergence (Example 1B Table 1)
[12] = post-emergence (Example 1B Table 2)

## C#CCC1CC(=O)C(c2c(Cl)cc(-c3ccc(Cl)cc3)cc2OC)C1=O (stereo not shown) [Compound A11, 2-[2-chloro-4-(4-chlorophenyl)-6-methoxyphenyl]-4-prop-2-ynylcyclopentane-1,3-dione]
[1]
  pest or weed control at 30 g/ha: 100%
  pest or weed control at 250 g/ha: 100%
[2]
  pest or weed control at 30 g/ha: 100%
  pest or weed control at 250 g/ha: 100%
Setaria faberi (SETFA)
  pest or weed control at 30 g/ha: 80%
  pest or weed control at 250 g/ha: 100%
[3]
  pest or weed control at 30 g/ha: 100%
  pest or weed control at 250 g/ha: 100%
[4]
  pest or weed control at 30 g/ha: 100%
  pest or weed control at 250 g/ha: 100%
[5]
  pest or weed control at 30 g/ha: 100%
  pest or weed control at 250 g/ha: 100%
[6]; [11]
  pest or weed control at 30 g/ha: 100%
  pest or weed control at 250 g/ha: 100%
[7]; [11]
  pest or weed control at 30 g/ha: 70%
  pest or weed control at 250 g/ha: 100%
[8]
  plant injury at 30 g/ha: 30%
  plant injury at 250 g/ha: 70%
[9]
  plant injury at 30 g/ha: 0%
  plant injury at 250 g/ha: 20%
[10]
  plant injury at 30 g/ha: 20%
  plant injury at 250 g/ha: 70%

## C#CCC1CC(=O)C(c2c(Cl)cc(-c3ccc(F)cc3)cc2OC)C1=O (stereo not shown) [Compound A7]
[1]
  pest or weed control at 30 g/ha: 100%
  pest or weed control at 250 g/ha: 100%
[2]
  pest or weed control at 30 g/ha: 100%
  pest or weed control at 250 g/ha: 100%
Setaria faberi (SETFA)
  pest or weed control at 30 g/ha: 90%
  pest or weed control at 250 g/ha: 100%
[3]
  pest or weed control at 30 g/ha: 100%
  pest or weed control at 250 g/ha: 100%
[4]
  pest or weed control at 30 g/ha: 100%
  pest or weed control at 250 g/ha: 100%
[5]
  pest or weed control at 30 g/ha: 100%
  pest or weed control at 250 g/ha: 100%
[6]; [11]
  pest or weed control at 30 g/ha: 100%
  pest or weed control at 250 g/ha: 100%
[7]; [11]
  pest or weed control at 30 g/ha: 70%
  pest or weed control at 250 g/ha: 100%
[8]
  plant injury at 30 g/ha: 60%
  plant injury at 250 g/ha: 80%
[9]
  plant injury at 30 g/ha: 0%
  plant injury at 250 g/ha: 20%
[10]
  plant injury at 30 g/ha: 20%
  plant injury at 250 g/ha: 70%

## C#CCC1CC(=O)C(c2c(C)cc(-c3ccc(F)cc3)cc2C)C1=O (stereo not shown) [Compound A1, 2-[4-(4-fluorophenyl)-2,6-dimethyl-phenyl]-4-prop-2-ynylcyclopentane-1,3-dione]
[1]
  pest or weed control at 30 g/ha: 100%
  pest or weed control at 125 g/ha: 100%
[2]
  pest or weed control at 30 g/ha: 80%
  pest or weed control at 125 g/ha: 100%
Setaria faberi (SETFA)
  pest or weed control at 30 g/ha: 90%
  pest or weed control at 125 g/ha: 100%
[3]
  pest or weed control at 30 g/ha: 90%
  pest or weed control at 125 g/ha: 100%
[4]
  pest or weed control at 30 g/ha: 100%
  pest or weed control at 125 g/ha: 100%
[5]
  pest or weed control at 30 g/ha: 100%
  pest or weed control at 125 g/ha: 100%
[6]; [11]
  pest or weed control at 62.5 g/ha: 100%
  pest or weed control at 250 g/ha: 100%
[7]; [11]
  pest or weed control at 62.5 g/ha: 90%
  pest or weed control at 250 g/ha: 100%
[8]
  plant injury at 30 g/ha: 70%
  plant injury at 125 g/ha: 70%
[9]
  plant injury at 30 g/ha: 0%
  plant injury at 125 g/ha: 0%
[10]
  plant injury at 30 g/ha: 70%
  plant injury at 125 g/ha: 70%

## C#CCC1CC(=O)C(c2c(CC)cc(C)cc2CC)C1=O (stereo not shown) [Compound A25, 2-(2,6-diethyl-4-methyl-phenyl)-4-(prop-2-ynyl)-cyclopentane-1,3-dione]
[1]
  pest or weed control at 30 g/ha: 100%
  pest or weed control at 125 g/ha: 100%
[2]
  pest or weed control at 30 g/ha: 100%
  pest or weed control at 125 g/ha: 100%
Setaria faberi (SETFA)
  pest or weed control at 30 g/ha: 90%
  pest or weed control at 125 g/ha: 100%
[3]
  pest or weed control at 30 g/ha: 100%
  pest or weed control at 125 g/ha: 100%
[4]
  pest or weed control at 30 g/ha: 100%
  pest or weed control at 125 g/ha: 100%
[5]
  pest or weed control at 30 g/ha: 100%
  pest or weed control at 125 g/ha: 100%
[6]; [12]
  pest or weed control at 62.5 g/ha: 100%
  pest or weed control at 250 g/ha: 100%
[7]; [12]
  pest or weed control at 62.5 g/ha: 90%
  pest or weed control at 250 g/ha: 100%
[8]
  plant injury at 30 g/ha: 0%
  plant injury at 125 g/ha: 20%
[9]
  plant injury at 30 g/ha: 0%
  plant injury at 125 g/ha: 0%
[10]
  plant injury at 30 g/ha: 0%
  plant injury at 125 g/ha: 0%
